Like-named read-outs stand apart in the source and are kept apart here.
Legend:
[1] = human, cited from earlier work; for Cmin and Cmax range: repeated administration for one week
mice [2] = conditions: oral doses 48-160 mg/kg; cited from earlier work
rats [3] = conditions: single intraperitoneal administration; cited from earlier work
[4] = rats, 3 mg/kg, cited from earlier work
[5] = tested on: anxiety, specifically GAD; assay: randomised placebo-controlled double-blind study in GAD: anxiety symptoms (HAM-A, CGI); assay type: in vivo, human; conditions: for CGI severity of illness: percentage of patients not ill or very mildly ill: after 8 weeks
Protocol: (§1) The efficacy of deramciclane in the treatment of anxiety, specifically GAD, was studied in a randomised placebo-controlled double-blind study. In addition, the dosage-dependency of the effects of deramciclane was evaluated. A total of 208 patients were included in the study. The subjects were randomly assigned to four parallel groups to receive one tablet twice daily (b.i.d) of a placebo, 5 mg (=10 mg/day), 15 mg (=30 mg/day), or 30 mg (=60mg/day) deramciclane. The study started with a one-week placebo run-in period, followed by an eight-week placebo-controlled active treatment and a two-week placebo washout period.
The efficacy of deramciclane on anxiety symptoms was studied by the efficacy variable Hamilton Anxiety Scale (HAM-A), analyzing the change in the score and using responder criterion (at least 50% reduction in HAM-A total score). The Clinical Global Impression (GCI) scale was also used for analyzing the efficacy of deramciclane on anxiety symptoms.

rats [6] = conditions: cited from earlier work
[7] = biological target: T1, serotonin 5-HT2A-receptors in frontal cortex (Homo sapiens, UniProt P28223); conditions: human brain, single oral dose; cited from earlier work
T1 construct: serotonin 5-HT2A-receptors in frontal cortex of healthy male volunteers; from tissue; host or cells: frontal cortex of living healthy male volunteers (in vivo)
T1 sequence (P28223 whole entry): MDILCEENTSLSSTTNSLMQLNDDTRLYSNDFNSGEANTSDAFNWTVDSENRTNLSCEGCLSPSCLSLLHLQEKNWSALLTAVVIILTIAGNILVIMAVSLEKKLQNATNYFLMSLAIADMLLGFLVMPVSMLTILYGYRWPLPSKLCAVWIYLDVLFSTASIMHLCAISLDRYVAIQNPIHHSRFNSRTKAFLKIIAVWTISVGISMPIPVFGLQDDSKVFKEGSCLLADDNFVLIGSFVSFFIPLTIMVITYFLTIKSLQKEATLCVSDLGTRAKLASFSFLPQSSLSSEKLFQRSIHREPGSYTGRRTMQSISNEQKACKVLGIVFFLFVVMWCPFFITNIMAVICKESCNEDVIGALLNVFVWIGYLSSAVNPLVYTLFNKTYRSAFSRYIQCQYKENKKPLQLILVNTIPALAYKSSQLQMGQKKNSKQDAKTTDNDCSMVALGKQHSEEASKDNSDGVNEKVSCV

rats [8] = conditions: intraperitoneally 1 or 10 mg/kg, 8 times, twice a day; cited from earlier work
rats [9] = conditions: oral doses of 25 and 100 mg/kg; cited from earlier work
mice [10] = conditions: single subcutaneous administration, 3 mg/kg; cited from earlier work
[11] = rat, single oral administration; cited from earlier work
withdrawal symptoms = assay: randomised placebo-controlled double-blind study in GAD: Physician's Withdrawal Checklist (PWC); assay type: in vivo, human
Protocol: as §1
After stopping the above-described 8-week treatment period, no discontinuation effects were seen (measured by the Physician's Withdrawal Checklist, PWC). This is different and surprising from the experiences with the most other efficacious drugs used for the treatment of anxiety.

[12] = biological target: serotonin 5-HT2C-receptor (Homo sapiens, UniProt P28335); conditions: cited from earlier work
Sequence of serotonin 5-HT2C-receptor (P28335 33-458): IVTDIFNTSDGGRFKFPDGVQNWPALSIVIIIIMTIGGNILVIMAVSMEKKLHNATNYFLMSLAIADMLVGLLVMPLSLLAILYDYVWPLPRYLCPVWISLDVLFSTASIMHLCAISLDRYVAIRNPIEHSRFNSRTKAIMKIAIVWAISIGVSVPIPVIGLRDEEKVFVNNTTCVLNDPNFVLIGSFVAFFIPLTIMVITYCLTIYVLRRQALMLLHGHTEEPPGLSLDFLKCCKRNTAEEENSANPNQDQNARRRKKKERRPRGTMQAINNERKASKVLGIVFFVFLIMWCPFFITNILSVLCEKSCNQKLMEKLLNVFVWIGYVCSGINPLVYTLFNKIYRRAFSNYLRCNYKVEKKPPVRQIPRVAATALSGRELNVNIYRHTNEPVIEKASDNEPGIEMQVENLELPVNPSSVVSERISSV

depressive symptoms = assay: randomised placebo-controlled double-blind study in GAD: depressive symptoms (MADRS); assay type: in vivo, human
Protocol: as §1
The efficacy of deramciclane on depressive symptoms was studied using the Montgomery Asberg Depression Rating Scale (MADRS).

[13] = human, cited from earlier work
[14] = human, in vivo
Protocol: In a comparative pharmacokinetic study of orally administered deramciclane in rats, dogs, rabbits and humans (Klebovich et al Pharm. Pharmacol. Commun., 4:129-136, 1998), it was shown that the plasma concentration curves obtained after the administration of a single 3 mg/kg oral dose of deramciclane to rats (dogs, rabbits) and human show considerable species specific differences. […] Thus a 40-times lower oral dose of deramciclane could be used in man to result in the same maximal plasma concentration as in rat. […] Thus, over 300 times lower oral doses should result in equal exposure in humans than in rats. Basing only the Cmax difference between rat and man, it can be predicted that considerably lower doses should be centrally active in humans than in rat. The minimum oral effective anti-anxiety dose in rats was 1 mg/kg (1-30 mg/kg the full range; see above), i.e. in a 70 kg-man this would mean 70 mg dose. […] This would result in 70 mg/40=1.75 mg (i.e. 0.025 mg/kg) as an effective dose in man.

rats [15] = conditions: cited from earlier work; remark: listed apart in the source
serotonin 5HT2A-receptor = serotonin 5HT2A-receptor (Homo sapiens, UniProt P28223); conditions: cited from earlier work
Sequence of serotonin 5HT2A-receptor (P28223 whole entry): as the sequence (P28223 whole entry) above

PWC value, Mean (SD) (withdrawal symptoms; 5 mg b.i.d., after 2 week wash-out): 9 (8) | PWC value, Mean (SD) (withdrawal symptoms; 5 mg b.i.d., after 8 week treatment): 9 (7) | PWC value, Mean (SD) (withdrawal symptoms; 15 mg b.i.d., after 2 week wash-out): 8 (7) | PWC value, Mean (SD) (withdrawal symptoms; 15 mg b.i.d., after 8 week treatment): 7 (8) | PWC value, Mean (SD) (withdrawal symptoms; 30 mg b.i.d., after 2 week wash-out): 8 (7) | PWC value, Mean (SD) (withdrawal symptoms; 30 mg b.i.d., after 8 week treatment): 8 (8) | withdrawal symptoms after abrupt discontinuation (withdrawal symptoms; after 8-week treatment): did not cause any withdrawal symptoms | factor by which oral dose in man is lower for the same maximal plasma concentration as in rat [14]: 40 times | factor by which oral dose is lower for equal exposure in humans than in rats ([14]; rat): over 300 times
SMILES: CN(C)CCO[C@]1(c2ccccc2)C[C@H]2CC[C@]1(C)C2(C)C [deramciclane, (1R,2S,4R)-(−)-2-[N,N-(dimethylaminoethoxy)]-2-phenyl-1,7,7-trimethyl-bicyclo [2.2.1]heptane]
Cmin and Cmax range ([1]; 20 mg daily): 16 to 33 ng/mL | Cmin and Cmax range ([1]; 60 mg daily): 48 to 91 ng/mL | Cmax ([1]; single oral 20 mg): 24 ± 9.4 ng/mL | Cmax ([1]; single oral 30 mg): 27 ± 6.1 ng/mL | effect on tetrabenazine-induced ptosis (mice [2]): negligible | effect on social interaction time (rats [3]): enhanced the social interaction time | minimum effective dose (rats [3]): 0.7 mg/kg | radioactivity in organs including blood and the brain ([4]; intravenous administration): high radioactivity | radioactivity in organs, especially the brain ([4]; oral administration, compared with intravenous): substantially lower | HAM-A score, difference from placebo ([5]; 5 mg b.i.d, 8 weeks): No difference | CGI severity of illness: percentage of patients not ill or very mildly ill ([5]; 5 mg b.i.d): 49% | responders (at least 50% reduction in HAM-A total score) ([5]; 5 mg b.i.d., n=31): 57% | HAM-A score decrease from baseline ([5]; 15 mg b.i.d, 8 weeks, p=0.006 vs placebo): 14.5 points | CGI severity of illness: percentage of patients not ill or very mildly ill ([5]; 15 mg b.i.d): 55% | responders (at least 50% reduction in HAM-A total score) ([5]; 15 mg b.i.d., n=39, p=0.020 vs placebo): 76% | CGI severity of illness: percentage of patients not ill or very mildly ill ([5]; 30 mg b.i.d, p=0.030): 61% | HAM-A score decrease from baseline ([5]; 30 mg b.i.d., 8 weeks, not significant vs placebo): 14.5 points | responders (at least 50% reduction in HAM-A total score) ([5]; 30 mg b.i.d., n=37): 70% | effect on caerulein-induced decrease in exploratory behavior (rats [6]; intraperitoneal dose of 0.5 mg/kg): able to attenuate | effect in elevated plus maze test (rats [6]; rats, single intraperitoneal doses 0.1 mg/kg-5 mg/kg): totally ineffective | plasma concentration at 50% 5HT2A-receptor occupancy [7]: ~21 ng/mL | plasma concentration at 90% 5HT2A-receptor occupancy [7]: about 70 ng/ml | effect on helpless behaviour induced by inescapable electric foot shocks (rats [8]): dose dependently attenuated helpless behaviour | effect in forced swimming test (rats [9]): clearly ineffective | activity in two compartment test (mice [10]): active | mean AUC 0-∞ [11]: 11.9 ng·h/mL | antagonism of the receptor [12]: potent antagonist | binding affinity ([12]; in vitro): high affinity | effect on MADRS score (depressive symptoms; 5 mg b.i.d): ineffective | MADRS score decrease (depressive symptoms; 15 mg b.i.d, p=0.028): 7.7 points | MADRS score decrease (depressive symptoms; 30 mg b.i.d, p=0.016): 8.0 points | Cmax ([13]; single 3 mg/kg oral dose): 217.5 ng/mL | mean AUC 0-∞ ([13]; single oral administration): 3737.8 ng·h/mL | minimum oral effective anti-anxiety dose (rats [15]; oral): 1 mg/kg | activity in punished drinking test (rats [15]; single oral administration, 1 mg/kg and 10 mg/kg): active | antagonism of the receptor (serotonin 5HT2A-receptor): potent antagonist | binding affinity (serotonin 5HT2A-receptor; in vitro): high affinity

Source: patent US6589996B2, “Treatment of disorders relating to the serotonergic system” (Orion Corporation, priority 2000, dated 2003)
